Measurements: ChEMBL document CHEMBL4507297, “Data for DCP probe PF-04457845” (2021)

Columns and labels:
[1] = molecular target: Serine/threonine-protein kinase RIO1 (Homo sapiens) (UniProt Q9BRS2); conditions: Compound concentration 1000.0 nM
[2] = molecular target: Dual specificity mitogen-activated protein kinase kinase 7 (Homo sapiens) (UniProt O14733); conditions: Compound concentration 1000.0 nM
[3] = molecular target: Mitogen-activated protein kinase 15 (Homo sapiens) (UniProt Q8TD08); conditions: Compound concentration 1000.0 nM
[4] = molecular target: Sodium-dependent noradrenaline transporter (Homo sapiens) (UniProt P23975); conditions: Compound concentration 10.0 uM
[5] = molecular target: Ribosomal protein S6 kinase alpha-2 (Homo sapiens) (UniProt Q15349); conditions: Compound concentration 1000.0 nM
[6] = molecular target: 5-hydroxytryptamine receptor 1D (Homo sapiens) (UniProt P28221); conditions: Compound concentration 10.0 uM
[7] = molecular target: TGF-beta receptor type-1 (Homo sapiens) (UniProt P36897); conditions: Compound concentration 1000.0 nM
[8] = molecular target: Atypical kinase COQ8B, mitochondrial (Homo sapiens) (UniProt Q96D53); conditions: Compound concentration 1000.0 nM
[9] = molecular target: Homeodomain-interacting protein kinase 4 (Homo sapiens) (UniProt Q8NE63); conditions: Compound concentration 1000.0 nM
[10] = molecular target: NUAK family SNF1-like kinase 2 (Homo sapiens) (UniProt Q9H093); conditions: Compound concentration 1000.0 nM
[11] = test system: Tyrosine-protein kinase ABL1 (Homo sapiens), P00519 [E255K]; conditions: Compound concentration 1000.0 nM
[12] = molecular target: Calcium/calmodulin-dependent protein kinase type 1 (Homo sapiens) (UniProt Q14012); conditions: Compound concentration 1000.0 nM
[13] = molecular target: Cyclin-dependent kinase 11B (Homo sapiens) (UniProt P21127); conditions: Compound concentration 1000.0 nM
[14] = test system: Mast/stem cell growth factor receptor Kit (Homo sapiens), P10721 [V559D,T670I]; conditions: Compound concentration 1000.0 nM
[15] = molecular target: Hormonally up-regulated neu tumor-associated kinase (Homo sapiens) (UniProt P57058); conditions: Compound concentration 1000.0 nM
[16] = molecular target: Serine/threonine-protein kinase ULK3 (Homo sapiens) (UniProt Q6PHR2); conditions: Compound concentration 1000.0 nM
[17] = molecular target: Dual specificity mitogen-activated protein kinase kinase 4 (Homo sapiens) (UniProt P45985); conditions: Compound concentration 1000.0 nM
[18] = molecular target: Interleukin-1 receptor-associated kinase 3 (Homo sapiens) (UniProt Q9Y616); conditions: Compound concentration 1000.0 nM
[19] = test system: Mast/stem cell growth factor receptor Kit (Homo sapiens), P10721 [D816V]; conditions: Compound concentration 1000.0 nM
[20] = molecular target: Protein kinase C eta type (Homo sapiens) (UniProt P24723); conditions: Compound concentration 1000.0 nM
[21] = molecular target: Calcium-dependent protein kinase 1 (Plasmodium falciparum) (UniProt P62344); conditions: Compound concentration 1000.0 nM
[22] = molecular target: Eukaryotic translation initiation factor 2-alpha kinase 1 (Homo sapiens) (UniProt Q9BQI3); conditions: Compound concentration 1000.0 nM
[23] = test system: Fibroblast growth factor receptor 3 (Homo sapiens), P22607 [G697C]; conditions: Compound concentration 1000.0 nM
[24] = molecular target: Serine/threonine-protein kinase MRCK alpha (Homo sapiens) (UniProt Q5VT25); conditions: Compound concentration 1000.0 nM
[25] = molecular target: Serine/threonine-protein kinase PLK2 (Homo sapiens) (UniProt Q9NYY3); conditions: Compound concentration 1000.0 nM
[26] = molecular target: Mitogen-activated protein kinase 13 (Homo sapiens) (UniProt O15264); conditions: Compound concentration 1000.0 nM
[27] = molecular target: Receptor-interacting serine/threonine-protein kinase 2 (Homo sapiens) (UniProt O43353); conditions: Compound concentration 1000.0 nM
[28] = molecular target: Serine/threonine-protein kinase pim-2 (Homo sapiens) (UniProt Q9P1W9); conditions: Compound concentration 1000.0 nM
[29] = test system: Epidermal growth factor receptor (Homo sapiens), P00533 [L861Q]; conditions: Compound concentration 1000.0 nM
[30] = molecular target: Serine/threonine-protein kinase Nek11 (Homo sapiens) (UniProt Q8NG66); conditions: Compound concentration 1000.0 nM
[31] = molecular target: MAP/microtubule affinity-regulating kinase 4 (Homo sapiens) (UniProt Q96L34); conditions: Compound concentration 1000.0 nM
[32] = molecular target: Tyrosine-protein kinase JAK3 (Homo sapiens) (UniProt P52333); conditions: Compound concentration 1000.0 nM
[33] = molecular target: 5-hydroxytryptamine receptor 1E (Homo sapiens) (UniProt P28566); conditions: Compound concentration 10.0 uM
[34] = molecular target: Focal adhesion kinase 1 (Homo sapiens) (UniProt Q05397); conditions: Compound concentration 1000.0 nM
[35] = molecular target: MAP kinase-activated protein kinase 5 (Homo sapiens) (UniProt Q8IW41); conditions: Compound concentration 1000.0 nM
[36] = molecular target: Vascular endothelial growth factor receptor 2 (Homo sapiens) (UniProt P35968); conditions: Compound concentration 1000.0 nM
[37] = molecular target: Serine/threonine-protein kinase WNK3 (Homo sapiens) (UniProt Q9BYP7); conditions: Compound concentration 1000.0 nM
[38] = molecular target: 5-hydroxytryptamine receptor 1B (Homo sapiens) (UniProt P28222); conditions: Compound concentration 10.0 uM
[39] = molecular target: Serine/threonine-protein kinase tousled-like 2 (Homo sapiens) (UniProt Q86UE8); conditions: Compound concentration 1000.0 nM
[40] = molecular target: Tyrosine-protein kinase ABL1 (Homo sapiens) (UniProt P00519); conditions: Compound concentration 1000.0 nM
[41] = test system: Epidermal growth factor receptor (Homo sapiens), P00533 [UNDEFINED MUTATION]; conditions: Compound concentration 1000.0 nM
[42] = molecular target: Serine/threonine-protein kinase 38-like (Homo sapiens) (UniProt Q9Y2H1); conditions: Compound concentration 1000.0 nM
[43] = molecular target: Serine/threonine-protein kinase N1 (Homo sapiens) (UniProt Q16512); conditions: Compound concentration 1000.0 nM
[44] = molecular target: RAC-gamma serine/threonine-protein kinase (Homo sapiens) (UniProt Q9Y243); conditions: Compound concentration 1000.0 nM
[45] = test system: Tyrosine-protein kinase ABL1 (Homo sapiens), P00519 [F317I]; conditions: Compound concentration 1000.0 nM
Sequence of Tyrosine-protein kinase ABL1 (Homo sapiens), P00519 [F317I] (P00519 whole entry F317I): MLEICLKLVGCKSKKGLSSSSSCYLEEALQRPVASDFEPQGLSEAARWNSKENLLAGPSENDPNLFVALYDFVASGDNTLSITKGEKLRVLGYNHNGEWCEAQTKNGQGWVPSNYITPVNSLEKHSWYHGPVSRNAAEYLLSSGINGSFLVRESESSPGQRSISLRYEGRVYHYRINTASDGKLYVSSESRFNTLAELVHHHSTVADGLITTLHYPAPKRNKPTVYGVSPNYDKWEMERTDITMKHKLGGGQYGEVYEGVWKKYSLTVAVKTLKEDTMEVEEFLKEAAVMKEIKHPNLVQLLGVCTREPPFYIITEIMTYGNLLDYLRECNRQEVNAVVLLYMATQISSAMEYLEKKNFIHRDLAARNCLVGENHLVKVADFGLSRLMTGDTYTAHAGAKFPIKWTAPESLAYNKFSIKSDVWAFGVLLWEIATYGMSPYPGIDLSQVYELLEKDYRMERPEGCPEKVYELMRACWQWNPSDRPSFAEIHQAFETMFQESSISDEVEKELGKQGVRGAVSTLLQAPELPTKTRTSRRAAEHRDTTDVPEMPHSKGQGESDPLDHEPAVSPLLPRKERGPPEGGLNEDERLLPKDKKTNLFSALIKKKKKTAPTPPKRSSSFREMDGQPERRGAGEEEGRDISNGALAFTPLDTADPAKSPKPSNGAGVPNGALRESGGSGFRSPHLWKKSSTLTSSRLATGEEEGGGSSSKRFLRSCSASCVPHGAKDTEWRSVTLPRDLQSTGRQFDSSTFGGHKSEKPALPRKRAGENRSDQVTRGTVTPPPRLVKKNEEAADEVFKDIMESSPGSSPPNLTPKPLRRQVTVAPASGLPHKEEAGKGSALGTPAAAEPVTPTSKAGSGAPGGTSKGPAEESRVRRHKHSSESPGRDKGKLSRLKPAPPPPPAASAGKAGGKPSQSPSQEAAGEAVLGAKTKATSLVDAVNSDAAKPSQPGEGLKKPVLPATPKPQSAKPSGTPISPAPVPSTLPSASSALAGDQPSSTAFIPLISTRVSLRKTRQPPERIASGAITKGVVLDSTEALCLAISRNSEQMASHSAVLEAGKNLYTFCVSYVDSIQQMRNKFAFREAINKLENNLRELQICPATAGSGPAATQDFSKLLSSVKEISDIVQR

Sequence of MAP/microtubule affinity-regulating kinase 4 (Homo sapiens) (Q96L34 whole entry): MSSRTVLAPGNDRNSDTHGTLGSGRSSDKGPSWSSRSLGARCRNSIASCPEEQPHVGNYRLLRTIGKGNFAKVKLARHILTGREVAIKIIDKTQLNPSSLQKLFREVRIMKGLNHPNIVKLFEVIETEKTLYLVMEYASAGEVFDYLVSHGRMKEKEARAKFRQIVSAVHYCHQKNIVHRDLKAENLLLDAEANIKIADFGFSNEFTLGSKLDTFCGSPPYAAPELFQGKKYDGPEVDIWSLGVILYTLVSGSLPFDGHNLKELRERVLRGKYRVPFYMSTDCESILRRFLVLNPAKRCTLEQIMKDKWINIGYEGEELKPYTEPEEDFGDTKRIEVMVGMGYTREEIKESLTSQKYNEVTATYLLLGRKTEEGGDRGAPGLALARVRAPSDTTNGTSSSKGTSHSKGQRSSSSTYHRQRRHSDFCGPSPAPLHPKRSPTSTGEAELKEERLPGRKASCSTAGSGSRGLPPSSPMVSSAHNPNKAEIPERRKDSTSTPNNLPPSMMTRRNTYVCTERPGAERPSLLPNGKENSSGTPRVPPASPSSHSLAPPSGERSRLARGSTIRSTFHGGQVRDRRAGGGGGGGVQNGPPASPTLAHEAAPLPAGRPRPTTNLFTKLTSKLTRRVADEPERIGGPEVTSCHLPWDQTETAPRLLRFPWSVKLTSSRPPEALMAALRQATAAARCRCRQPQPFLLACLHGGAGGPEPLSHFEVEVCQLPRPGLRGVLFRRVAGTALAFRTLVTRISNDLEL
Sequence of Protein kinase C eta type (Homo sapiens) (P24723 whole entry): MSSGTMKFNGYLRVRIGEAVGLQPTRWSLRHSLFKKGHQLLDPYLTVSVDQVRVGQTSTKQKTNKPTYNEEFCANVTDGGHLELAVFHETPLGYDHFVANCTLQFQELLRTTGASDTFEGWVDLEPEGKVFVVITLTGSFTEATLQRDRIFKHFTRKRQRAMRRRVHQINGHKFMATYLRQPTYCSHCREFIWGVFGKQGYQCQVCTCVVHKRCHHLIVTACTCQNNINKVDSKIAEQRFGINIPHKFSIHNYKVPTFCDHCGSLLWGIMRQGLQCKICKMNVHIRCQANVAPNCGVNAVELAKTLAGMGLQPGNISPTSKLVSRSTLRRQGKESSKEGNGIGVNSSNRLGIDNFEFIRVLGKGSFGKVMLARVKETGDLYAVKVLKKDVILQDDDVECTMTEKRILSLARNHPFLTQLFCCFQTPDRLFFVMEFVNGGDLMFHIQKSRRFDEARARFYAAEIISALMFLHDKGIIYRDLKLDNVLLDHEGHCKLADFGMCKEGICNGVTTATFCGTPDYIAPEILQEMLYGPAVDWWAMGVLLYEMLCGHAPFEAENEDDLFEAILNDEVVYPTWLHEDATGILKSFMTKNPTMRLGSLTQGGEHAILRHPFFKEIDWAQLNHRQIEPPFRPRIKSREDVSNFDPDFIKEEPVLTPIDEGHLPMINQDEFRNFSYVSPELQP
Sequence of Receptor-interacting serine/threonine-protein kinase 2 (Homo sapiens) (O43353 whole entry): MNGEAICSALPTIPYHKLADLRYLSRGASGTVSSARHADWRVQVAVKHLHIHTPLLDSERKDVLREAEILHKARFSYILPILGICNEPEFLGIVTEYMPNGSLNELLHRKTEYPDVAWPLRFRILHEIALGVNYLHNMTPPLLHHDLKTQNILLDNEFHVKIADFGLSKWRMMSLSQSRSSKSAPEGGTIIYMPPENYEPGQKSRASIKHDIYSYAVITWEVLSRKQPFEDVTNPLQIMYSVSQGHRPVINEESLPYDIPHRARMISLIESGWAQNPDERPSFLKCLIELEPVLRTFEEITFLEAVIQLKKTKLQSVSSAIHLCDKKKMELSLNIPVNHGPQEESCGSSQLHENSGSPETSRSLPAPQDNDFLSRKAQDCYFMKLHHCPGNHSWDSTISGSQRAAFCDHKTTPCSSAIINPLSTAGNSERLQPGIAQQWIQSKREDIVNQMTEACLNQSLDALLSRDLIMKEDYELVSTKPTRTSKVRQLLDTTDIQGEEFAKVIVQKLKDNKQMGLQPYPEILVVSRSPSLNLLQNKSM
Sequence of Serine/threonine-protein kinase Nek11 (Homo sapiens) (Q8NG66 whole entry): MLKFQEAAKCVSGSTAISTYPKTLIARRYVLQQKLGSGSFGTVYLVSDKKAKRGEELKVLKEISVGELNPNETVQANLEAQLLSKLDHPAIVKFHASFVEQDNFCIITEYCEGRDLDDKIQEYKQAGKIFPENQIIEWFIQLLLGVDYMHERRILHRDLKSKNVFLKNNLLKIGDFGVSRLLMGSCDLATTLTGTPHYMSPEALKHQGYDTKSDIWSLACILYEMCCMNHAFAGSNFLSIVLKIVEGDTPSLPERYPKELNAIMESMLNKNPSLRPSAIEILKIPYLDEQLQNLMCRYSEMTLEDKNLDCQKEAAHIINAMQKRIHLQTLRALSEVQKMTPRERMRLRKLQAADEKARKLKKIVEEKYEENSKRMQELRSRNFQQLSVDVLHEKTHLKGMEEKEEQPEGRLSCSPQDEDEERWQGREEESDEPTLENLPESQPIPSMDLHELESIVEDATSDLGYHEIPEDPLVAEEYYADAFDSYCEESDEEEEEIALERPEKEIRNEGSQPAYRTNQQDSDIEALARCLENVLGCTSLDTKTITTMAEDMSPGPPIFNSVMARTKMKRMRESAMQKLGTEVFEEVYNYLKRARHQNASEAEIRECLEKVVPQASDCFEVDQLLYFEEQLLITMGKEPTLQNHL
Sequence of Serine/threonine-protein kinase ULK3 (Homo sapiens) (Q6PHR2 whole entry): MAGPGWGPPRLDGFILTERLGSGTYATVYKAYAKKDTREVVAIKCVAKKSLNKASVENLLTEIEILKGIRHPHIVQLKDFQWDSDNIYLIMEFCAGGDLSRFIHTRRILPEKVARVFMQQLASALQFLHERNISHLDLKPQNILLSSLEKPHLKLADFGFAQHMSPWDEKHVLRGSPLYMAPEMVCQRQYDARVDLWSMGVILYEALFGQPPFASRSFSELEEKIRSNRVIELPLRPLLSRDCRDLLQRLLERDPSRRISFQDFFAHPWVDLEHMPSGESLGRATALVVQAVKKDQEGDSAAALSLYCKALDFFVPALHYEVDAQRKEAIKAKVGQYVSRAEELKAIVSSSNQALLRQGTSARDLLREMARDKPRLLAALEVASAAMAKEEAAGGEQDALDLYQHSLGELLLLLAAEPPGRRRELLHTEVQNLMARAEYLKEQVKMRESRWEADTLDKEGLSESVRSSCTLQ
Sequence of Serine/threonine-protein kinase 38-like (Homo sapiens) (Q9Y2H1 2-464 limits assumed): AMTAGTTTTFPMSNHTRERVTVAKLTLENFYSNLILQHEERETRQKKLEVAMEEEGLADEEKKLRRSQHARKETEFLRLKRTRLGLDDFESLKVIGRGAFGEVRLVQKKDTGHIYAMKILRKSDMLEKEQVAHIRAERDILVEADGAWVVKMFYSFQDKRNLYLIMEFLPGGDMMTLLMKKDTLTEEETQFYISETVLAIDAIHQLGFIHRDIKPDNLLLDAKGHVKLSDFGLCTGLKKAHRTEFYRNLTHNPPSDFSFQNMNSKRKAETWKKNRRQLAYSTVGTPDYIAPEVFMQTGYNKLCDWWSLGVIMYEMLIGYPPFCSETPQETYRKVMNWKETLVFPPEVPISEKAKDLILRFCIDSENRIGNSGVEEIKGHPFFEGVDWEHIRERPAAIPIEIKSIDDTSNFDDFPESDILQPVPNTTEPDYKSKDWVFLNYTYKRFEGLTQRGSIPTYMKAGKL
Sequence of 5-hydroxytryptamine receptor 1E (Homo sapiens) (P28566 whole entry): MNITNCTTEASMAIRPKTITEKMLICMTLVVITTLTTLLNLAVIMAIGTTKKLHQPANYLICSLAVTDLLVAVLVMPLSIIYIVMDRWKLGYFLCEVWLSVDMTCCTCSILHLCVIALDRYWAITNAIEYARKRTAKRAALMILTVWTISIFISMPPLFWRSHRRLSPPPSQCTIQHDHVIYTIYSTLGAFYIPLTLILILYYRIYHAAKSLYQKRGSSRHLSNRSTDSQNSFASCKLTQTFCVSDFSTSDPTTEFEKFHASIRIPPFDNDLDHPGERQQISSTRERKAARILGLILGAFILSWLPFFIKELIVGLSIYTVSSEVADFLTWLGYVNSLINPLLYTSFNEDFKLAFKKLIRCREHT

O=C(Nc1cccnn1)N1CCC(=Cc2cccc(Oc3ccc(C(F)(F)F)cn3)c2)CC1
inactive: residual activity [1] 100% | residual activity [2] 100% | residual activity [3] 83% | inhibition [4] 7.86% | residual activity [5] 100% | inhibition [6] 42.1% | residual activity [7] 61% | residual activity [8] 81% | residual activity [9] 100% | residual activity [10] 88% | residual activity [11] 85% | residual activity [12] 100% | residual activity [13] 100% | residual activity [14] 96% | residual activity [15] 87% | residual activity [16] 100% | residual activity [17] 100% | residual activity [18] 86% | residual activity [19] 87% | residual activity [20] 77% | residual activity [21] 93% | residual activity [22] 100% | residual activity [23] 100% | residual activity [24] 95% | residual activity [25] 100% | residual activity [26] 86% | residual activity [27] 94% | residual activity [28] 97% | residual activity [29] 84% | residual activity [30] 100% | residual activity [31] 76% | residual activity [32] 100% | inhibition [33] 19% | residual activity [34] 100% | residual activity [35] 100% | residual activity [36] 88% | residual activity [37] 100% | inhibition [38] 24.4% | residual activity [39] 100% | residual activity [40] 93% | residual activity [41] 100% | residual activity [42] 84% | residual activity [43] 100% | residual activity [44] 100% | residual activity [45] 100%

O=C(Nc1cccnn1)N1CC(C/C=C/c2cncc(Oc3ccc(C(F)(F)F)cn3)n2)C1
inactive: residual activity [1] 100% | residual activity [2] 91% | residual activity [3] 100% | inhibition [4] -1% | residual activity [5] 100% | inhibition [6] -2.98% | residual activity [7] 100% | residual activity [8] 94% | residual activity [9] 92% | residual activity [10] 73% | residual activity [11] 81% | residual activity [12] 100% | residual activity [13] 100% | residual activity [14] 100% | residual activity [15] 89% | residual activity [16] 82% | residual activity [17] 74% | residual activity [18] 100% | residual activity [19] 100% | residual activity [20] 100% | residual activity [21] 99% | residual activity [22] 100% | residual activity [23] 100% | residual activity [24] 100% | residual activity [25] 60% | residual activity [26] 100% | residual activity [27] 93% | residual activity [28] 100% | residual activity [29] 100% | residual activity [30] 100% | residual activity [31] 100% | residual activity [32] 100% | inhibition [33] 0.84% | residual activity [34] 100% | residual activity [35] 76% | residual activity [36] 64% | residual activity [37] 84% | inhibition [38] 4.8% | residual activity [39] 100% | residual activity [40] 82% | residual activity [41] 95% | residual activity [42] 100% | residual activity [43] 100% | residual activity [44] 100% | residual activity [45] 67%
